From a melting point compilation (Tetko et al.; mined from patent text by program, amines drawn as free bases though some values may be those of a salt)

**Q.** Which melting point does the source give for `CCOCCNC1CCCCC1Cc1ccc(-c2cccc(N)n2)cc1` (stereo not drawn) here?
**A.** 70 to 90 °C

**Q.** For `COc1cc(C=O)cc(OC)c1N`, which melting point is on record?
**A.** 94 to 96 °C

**Q.** Which melting point does the source give for `Nc1cc(-n2c(=O)n(-c3ccccc3)c3ccccc32)ccn1` here?
**A.** 184 to 185 °C

**Q.** Which melting point does the source give for `Cn1cc(OCC(F)(F)F)c(=O)c(-c2cccc(C(F)(F)F)c2)c1` here?
**A.** 97 to 99 °C

**Q.** For `CC(=O)/C(=C/I)c1ccccc1`, which melting point is on record?
**A.** 97 °C

**Q.** With `COc1ccc(Cl)cc1C(=O)NCc1ccc(-c2ccc(OC(C)(C)C(=O)O)cc2)cc1` as the compound, how does the melting point read?
**A.** 104 °C

**Q.** For `COC(=O)C(=O)Nc1ccc(Cl)cc1`, which melting point is on record?
**A.** 162 to 164 °C

**Q.** Which melting point does the source give for `COc1ccc(C2(C#Cc3cccc(-c4nc(C)no4)c3)CCC(=O)CC2)cc1OC1CCCC1` here?
**A.** 88 to 91 °C

**Q.** With `OCCc1ccc(OCc2ccc3ccccc3n2)cc1` as the compound, how does the melting point read?
**A.** 145 °C

**Q.** With `CCOCc1nc2c(Cl)nc(C)c(C)c2n1NC1CCOCC1` as the compound, how does the melting point read?
**A.** 137 to 139 °C

**Q.** For `CC(=O)OCCOC(=O)C1=C(C)NC(C)=C([N+](=O)[O-])C1c1ccccc1Cl` (stereo not drawn), which melting point is on record?
**A.** 158 to 160 °C

**Q.** Which melting point does the source give for `O=C1c2ccccc2C(=O)c2c(NC3CCCCC3)cccc21` here?
**A.** 145 °C

**Q.** Which melting point does the source give for `COC(=O)c1cc2cc(NC(=O)c3cc4cc(N)ccc4[nH]3)ccc2[nH]1` here?
**A.** > 350 °C

**Q.** Which melting point does the source give for `CC(=O)OC1CCC2C3CCC4=CC(=O)CCC4(C)C3(Br)C(F)CC12C` (stereo not drawn) here?
**A.** 172 to 174 °C

**Q.** For `OC(C=C(Cl)Cl)(Cn1cncn1)c1ccc(Cl)cc1` (stereo not drawn), which melting point is on record?
**A.** 95 to 99 °C

**Q.** For `O=C(Nc1ccc(N2C[C@H]3CN(C(=O)OCc4ccccc4)C[C@H]3C2)cc1)OCc1ccccc1`, which melting point is on record?
**A.** 145 to 146 °C

**Q.** For `COC(=O)C(Cc1ccc(Cl)cc1Cl)c1c(Cl)cccc1Cl` (stereo not drawn), which melting point is on record?
**A.** 115 °C

**Q.** With `CCCC[C@H]1CC[C@H](OC(=O)c2cc(Sc3ccc(C)cc3)c3c(c2N)C(=O)c2ccccc2C3=O)CC1` as the compound, how does the melting point read?
**A.** 176 to 177 °C

**Q.** Which melting point does the source give for `N#Cc1ccc(C2CC(n3ccnc3)c3ccccc3N2)cc1` (stereo not drawn) here?
**A.** 166 to 168 °C

**Q.** For `COc1cccc(-c2[nH]c(-c3ccc(N)cc3)nc2C(=O)Nc2nccs2)c1`, which melting point is on record?
**A.** 262 to 263 °C

**Q.** Which melting point does the source give for `COc1cc(C)c(S(=O)(=O)c2ccccc2)cc1OC` here?
**A.** 162 to 163 °C

**Q.** Which melting point does the source give for `CCOCCOc1ccc(-c2ccc3c(c2)C=C(C(=O)O)CCN3S(C)(=O)=O)cc1` here?
**A.** 222 to 225 °C

**Q.** For `CNC(=O)C1=CC2(CCSCC2)Oc2ccc([N+](=O)[O-])cc21`, which melting point is on record?
**A.** 208 to 209 °C

**Q.** With `COc1cc(O)cc2cc(-c3ccc(O)cc3)oc12` as the compound, how does the melting point read?
**A.** 167 to 168 °C

**Q.** For `COC(=O)c1cccc2[nH]c3ccccc3c12`, which melting point is on record?
**A.** 84.3 °C

**Q.** For `C=C1CCc2c(F)c(F)cc3c(=O)c(C(=O)O)cn1c23`, which melting point is on record?
**A.** 220 to 232 °C

**Q.** With `CCC1(CC)c2cc(C)c(C)cc2C(CC)(CC)N1OC(C)=O` as the compound, how does the melting point read?
**A.** 80 to 82 °C

**Q.** Which melting point does the source give for `O=C(O)c1ccc(-c2cnc3c(c2)N(Cc2ccccc2)CCN3)cc1` here?
**A.** > 300 °C

**Q.** With `CCN(CC)C(=O)c1cc(OC)cc(Oc2cccc(C(F)(F)F)c2)n1` as the compound, how does the melting point read?
**A.** 78 to 89 °C

**Q.** With `Cc1ccc(C2CCN(Cc3ccc(COc4cccc5c4CN(C4CCC(=O)NC4=O)C5=O)cc3)CC2)cc1` (stereo not drawn) as the compound, how does the melting point read?
**A.** 208 to 210 °C

**Q.** Which melting point does the source give for `CONC(=NCCSCc1[nH]cnc1C)NC#N` here?
**A.** 155 to 156 °C

**Q.** Which melting point does the source give for `CN(C)S(=O)(=O)c1cc(-c2csc(=Nc3ccccc3)n2C2CC2)ccc1Cl` here?
**A.** 156 to 159 °C

**Q.** For `COc1ccc(CCc2ccc(N)cc2)cc1OC`, which melting point is on record?
**A.** 115 to 116 °C

**Q.** Which melting point does the source give for `COc1ccc(C(=O)C(=O)c2cccc(-c3ccc(S(C)(=O)=O)cc3)c2-c2ccccc2)cc1Cl` here?
**A.** 163 to 166 °C

**Q.** With `N#Cc1c(Oc2ccc(Oc3ccc(N)cc3)cc2)cccc1Oc1ccc(Oc2ccc(N)cc2)cc1` as the compound, how does the melting point read?
**A.** 233 to 234 °C

**Q.** Which melting point does the source give for `C#CCN(C(C)C)C(C)CC1=C2c3ccc(OC)cc3CCC2CCNC1=O` (stereo not drawn) here?
**A.** 146 to 148 °C

**Q.** With `CCOc1cc(C(CC(=O)OC)N2C(=O)c3ccccc3C2=O)ccc1OC` (stereo not drawn) as the compound, how does the melting point read?
**A.** 86 to 87 °C

**Q.** Which melting point does the source give for `O=C(O)c1ccccc1OCCN1CCC(c2cn(Cc3ccoc3)c3ncccc23)CC1` here?
**A.** 105 to 107 °C

**Q.** Which melting point does the source give for `Cc1nc(-c2cc(Cl)ccc2Cl)n2c1nnc1ccc(N3CCOCC3)cc12` here?
**A.** 239 to 242 °C

**Q.** Which melting point does the source give for `COc1ccc(C=NNC(=O)c2ccc(O)cc2)cc1` here?
**A.** 209 °C

**Q.** With `CC(C)(C)OC(=O)N(C(=O)OC(C)(C)C)C(=O)c1cc2cc(Br)ccc2o1` as the compound, how does the melting point read?
**A.** 138 to 139 °C

**Q.** Which melting point does the source give for `CC(O)(c1ccccc1)c1cc(Cl)ccc1N` (stereo not drawn) here?
**A.** 93 to 94 °C

**Q.** Which melting point does the source give for `CSc1cn(CC(C)N(O)C(N)=O)c2ccccc12` (stereo not drawn) here?
**A.** 87 to 90 °C

**Q.** Which melting point does the source give for `COCCCOc1cc(CC(CC(NC(=O)OC(C)(C)C)C2CC(C)C(=O)O2)C(C)C)ccc1OC` (stereo not drawn) here?
**A.** 86 to 87 °C

**Q.** For `N#Cc1ccc(NC(=O)NC(=O)c2c(F)cccc2F)c(Cl)c1Cl`, which melting point is on record?
**A.** 285 to 287 °C

**Q.** With `C=CCn1cnc2c1c(=O)n(CCC(C)C(C)=O)c(=O)n2C` (stereo not drawn) as the compound, how does the melting point read?
**A.** 73 to 74 °C

**Q.** Which melting point does the source give for `CN1C2CCC1CC(NC(=O)c1cccc3oc(-c4ccccc4)nc13)C2` (stereo not drawn) here?
**A.** 149 to 151 °C

**Q.** With `CC(=O)Nc1ccc(-c2ccc(C(C)=O)o2)cc1` as the compound, how does the melting point read?
**A.** 214 to 215 °C

**Q.** Which melting point does the source give for `CCCCCCCCC(C)C(=O)NCl` (stereo not drawn) here?
**A.** 56 to 57 °C

**Q.** Which melting point does the source give for `O=C1CCN(Cc2cccnc2)C(=O)C1` here?
**A.** 55 to 60 °C

**Q.** Which melting point does the source give for `CCOC(=O)c1ccc(OCc2nc(C)c(C)nc2C)cc1` here?
**A.** 75 to 75.7 °C

**Q.** With `O=c1c(-c2cccc(C(F)(F)F)c2)coc2c(O)c(O)ccc12` as the compound, how does the melting point read?
**A.** 225 °C

**Q.** With `CC1OC(OCc2ccccc2)C(F)C(O)C1O` (stereo not drawn) as the compound, how does the melting point read?
**A.** 124 to 126 °C

**Q.** Which melting point does the source give for `CC(C)c1nc2c(c(-c3ccc(F)cc3)c1CO)CCC2(C)C` here?
**A.** 141 to 143 °C

**Q.** With `CC(=O)NC(C(=O)Nc1ccc(C(=O)OCc2ccccc2)cc1)c1ccc2c(c1)C(C)(C)CCC2(C)C` (stereo not drawn) as the compound, how does the melting point read?
**A.** 258 to 259 °C

**Q.** Which melting point does the source give for `CN(C)C(=O)n1c(CN2CCN(c3ccccn3)CC2)nc2ccccc21` here?
**A.** 174 to 176 °C

**Q.** With `CCCC1(CCC)Oc2c(ccc(O)c2C(C)=O)-c2ccccc21` as the compound, how does the melting point read?
**A.** 83 to 83.5 °C

**Q.** Which melting point does the source give for `O=C1NC2CCC(Cc3ccc(O)cc3)CC2CC1CO` (stereo not drawn) here?
**A.** 126 to 128 °C

**Q.** For `COc1cc(OC)cc(C(O)C(=O)c2ccccc2)c1` (stereo not drawn), which melting point is on record?
**A.** 98 to 104 °C

**Q.** Which melting point does the source give for `COc1cccc(CCl)c1SCc1ccccc1` here?
**A.** 54 °C

**Q.** Which melting point does the source give for `Cc1cc2c(s1)Oc1ccccc1N=C2N1CCN(CCO)CC1` here?
**A.** 87 to 89 °C

**Q.** For `[N-]=[N+]=C(c1ccccc1)c1ccc(COCCNC(=O)Nc2ccccc2)cc1`, which melting point is on record?
**A.** 111 to 115 °C

**Q.** With `NC(=O)c1c(N)n[nH]c1N1CCN(Cc2ccccc2)CC1` as the compound, how does the melting point read?
**A.** 234 to 236 °C

**Q.** Which melting point does the source give for `CC(C)(C)C1=CC(=Nc2cc(C(=O)O)ccc2O)C=C(C(C)(C)C)C1=O` here?
**A.** 275 to 276 °C

**Q.** With `CCOC(=O)c1cc2cccc(NC(=O)OC(C)(C)C)c2[nH]1` as the compound, how does the melting point read?
**A.** 132 to 133 °C

**Q.** Which melting point does the source give for `Cc1ccc(S(=O)(=O)c2ccc3c(c2)c(CCN(C)C(=O)OC(C)(C)C)cn3C)cc1` here?
**A.** 143 to 145 °C

**Q.** For `CC12CCC3C(CCC4CC(F)CCC43C)C1CCC2O` (stereo not drawn), which melting point is on record?
**A.** 150 to 151 °C

**Q.** Which melting point does the source give for `CCCSc1sc(C(=O)OCC)c2c1C(=O)C(Br)CC2` (stereo not drawn) here?
**A.** 93 to 94 °C

**Q.** For `CCOC(=O)N1CCc2nnc(NN=C(C)C)cc2C1`, which melting point is on record?
**A.** 171 to 174 °C

**Q.** With `Cc1cnc2c(NC(=O)c3ccccc3[N+](=O)[O-])ccc(C)c2c1-n1ccnc1` as the compound, how does the melting point read?
**A.** 231 to 233 °C

**Q.** For `Cc1cc2cc(/C(=C\CO)c3ccc(I)cc3)ccc2o1`, which melting point is on record?
**A.** 103 to 113 °C

**Q.** Which melting point does the source give for `CC(C)(O)CCn1c2ccccc2c2cc(NC(=O)c3ccccc3Cl)ccc21` here?
**A.** 120 to 124 °C

**Q.** With `N#CCCC=C(c1ccccc1)c1ccccc1` as the compound, how does the melting point read?
**A.** 64 to 66 °C
